The values below come from ChEMBL document CHEMBL4334526, “Synthesis of Peptoid-Based Class I-Selective Histone Deacetylase Inhibitors with Chemosensitizing Properties” (J Med Chem, 2019).

In assay [1] the test system is CAL-27. Description: Potency index, ratio of vorinostat IC50 to test compound IC50 for cytotoxicity against human CAL27 cells. The format is functional.
Assay [2] deals with CAL-27. Briefly: Induction of apoptosis in human CAL27 cells assessed as caspase-3/7 activation at 0.5 uM measured after 48 hrs by CellEvent caspase 3/7 green detection reagent/Hoechst 33342 staining based imaging analysis relative to control. It is filed as functional.
The target in assay [3] is T1, Class 1 histone deacetylase (Homo sapiens, UniProt Q13547+O15379+Q92769+Q9BY41). The format is cell-based.
T1 sequence (O15379 whole entry, looked up): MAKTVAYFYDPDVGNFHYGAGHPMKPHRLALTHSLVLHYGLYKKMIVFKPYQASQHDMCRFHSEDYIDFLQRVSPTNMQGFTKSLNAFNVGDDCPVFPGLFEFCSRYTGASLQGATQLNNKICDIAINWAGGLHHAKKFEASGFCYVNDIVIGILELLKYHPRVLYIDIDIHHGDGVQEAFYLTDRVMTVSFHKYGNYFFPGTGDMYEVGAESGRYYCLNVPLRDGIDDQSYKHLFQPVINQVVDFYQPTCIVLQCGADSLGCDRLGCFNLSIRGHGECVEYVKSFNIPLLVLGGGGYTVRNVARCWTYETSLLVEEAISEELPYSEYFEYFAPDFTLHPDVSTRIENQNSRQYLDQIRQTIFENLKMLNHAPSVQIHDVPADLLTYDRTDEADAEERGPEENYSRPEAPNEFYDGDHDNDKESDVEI
T1 sequence (Q13547 whole entry, looked up): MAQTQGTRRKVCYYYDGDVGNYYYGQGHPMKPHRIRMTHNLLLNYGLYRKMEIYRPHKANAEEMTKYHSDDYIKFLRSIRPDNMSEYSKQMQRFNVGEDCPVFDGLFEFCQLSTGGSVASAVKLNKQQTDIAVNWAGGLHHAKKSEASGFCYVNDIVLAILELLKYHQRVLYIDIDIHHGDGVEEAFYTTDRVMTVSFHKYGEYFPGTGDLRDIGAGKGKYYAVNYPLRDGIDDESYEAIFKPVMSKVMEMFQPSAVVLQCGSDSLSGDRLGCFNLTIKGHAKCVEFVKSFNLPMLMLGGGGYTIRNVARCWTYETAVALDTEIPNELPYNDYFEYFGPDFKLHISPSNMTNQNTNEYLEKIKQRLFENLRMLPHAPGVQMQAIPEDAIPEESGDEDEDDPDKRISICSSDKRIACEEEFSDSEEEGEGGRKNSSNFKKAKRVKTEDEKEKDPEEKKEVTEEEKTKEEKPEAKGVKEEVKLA
T1 sequence (Q92769 whole entry, looked up): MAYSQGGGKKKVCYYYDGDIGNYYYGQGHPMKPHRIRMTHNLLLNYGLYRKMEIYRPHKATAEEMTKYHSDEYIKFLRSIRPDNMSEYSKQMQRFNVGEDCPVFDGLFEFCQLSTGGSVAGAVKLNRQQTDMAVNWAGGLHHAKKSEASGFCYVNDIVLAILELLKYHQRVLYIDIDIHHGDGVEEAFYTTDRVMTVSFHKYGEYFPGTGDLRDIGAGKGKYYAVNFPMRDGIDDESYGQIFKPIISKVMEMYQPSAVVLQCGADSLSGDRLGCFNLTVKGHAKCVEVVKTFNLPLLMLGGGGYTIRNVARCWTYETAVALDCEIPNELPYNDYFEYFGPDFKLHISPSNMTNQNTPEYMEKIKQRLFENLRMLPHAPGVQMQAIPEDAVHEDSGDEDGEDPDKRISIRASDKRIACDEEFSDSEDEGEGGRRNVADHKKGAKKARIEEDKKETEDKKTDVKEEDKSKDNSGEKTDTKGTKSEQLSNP
T1 sequence (Q9BY41 whole entry, looked up): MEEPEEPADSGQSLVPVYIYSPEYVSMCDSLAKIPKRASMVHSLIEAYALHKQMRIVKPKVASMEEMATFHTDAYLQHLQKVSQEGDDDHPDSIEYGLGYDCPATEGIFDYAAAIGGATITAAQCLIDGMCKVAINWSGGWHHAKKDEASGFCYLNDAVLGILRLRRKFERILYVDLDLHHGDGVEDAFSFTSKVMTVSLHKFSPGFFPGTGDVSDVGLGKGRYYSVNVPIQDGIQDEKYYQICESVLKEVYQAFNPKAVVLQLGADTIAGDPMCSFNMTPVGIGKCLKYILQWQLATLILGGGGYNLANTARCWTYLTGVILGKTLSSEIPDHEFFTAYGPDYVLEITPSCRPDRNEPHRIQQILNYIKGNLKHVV
Assay [4] addresses T1, Class 1 histone deacetylase. Conditions: CAL-27.
Description: Inhibition of class 1 HDAC in human CAL27 cells assessed as potentiation of cisplatin-induced cytotoxicity by measuring combination index at 0.25 uM in presence of 0.1 uM cisplatin by MTT assay based Chou-Talalay analysis
For assay [5] the target is unchanged. Conditions: CAL-27. This is another data set of the same source.
Description: Inhibition of class 1 HDAC in human CAL27 cells assessed as potentiation of cisplatin-induced cytotoxicity by measuring combination index at 0.1 uM in presence of 10 uM cisplatin by MTT assay based Chou-Talalay analysis
The target is the same in assay [6]. Particulars: CAL-27. This is another data set of the same source.
Description: Inhibition of class 1 HDAC in human CAL27 cells assessed as potentiation of cisplatin-induced cytotoxicity by measuring combination index at 0.1 uM in presence of 3.2 uM cisplatin by MTT assay based Chou-Talalay analysis
Assay [7] shares this target.
Description: Inhibition of class 1 HDAC in human Cal27CisR cells assessed as potentiation of cisplatin-induced cytotoxicity by measuring combination index at 0.10 uM in presence of 3.2 uM cisplatin by MTT assay based Chou-Talalay analysis
Assay [8] has the same target. This is another data set of the same source.
Description: Inhibition of class 1 HDAC in human Cal27CisR cells assessed as potentiation of cisplatin-induced cytotoxicity by measuring combination index at 0.10 uM in presence of 100 uM cisplatin by MTT assay based Chou-Talalay analysis
Assay [9] has the same target. This is another data set of the same source.
Assay [10] shares this target. Description: Inhibition of class 1 HDAC in human Cal27CisR cells assessed as potentiation of cisplatin-induced cytotoxicity by measuring cisplatin IC50 at 5 uM preincubated for 48 hrs followed by cisplatin addition and measured after 72 hrs by MTT assay (reference value: 63.2 uM). The format is cell-based. (In general: Formazan colour is commonly taken as a measure of viable cells.)

For assay [11] the target is unchanged. Briefly: Inhibition of class 1 HDAC in human Cal27CisR cells assessed as potentiation of cisplatin-induced cytotoxicity by measuring combination index at 5 uM in presence of 10 uM cisplatin by MTT assay based Chou-Talalay analysis. It is filed as cell-based.
Assay [12] shares this target. Briefly: Inhibition of class 1 HDAC in human Cal27CisR cells assessed as potentiation of cisplatin-induced cytotoxicity by measuring combination index at 5 uM in presence of 32 uM cisplatin by MTT assay based Chou-Talalay analysis. It is filed as cell-based.
Assay [13] shares this target. Briefly: Inhibition of class 1 HDAC in human CAL27 cells assessed as potentiation of cisplatin-induced apoptosis by measuring increase in accumulation at sub-G1 phase at 5 uM preincubated for 48 hrs followed by cisplatin addition and measured after 24 hrs by propidium iodide staining based flow cytometry. The format is cell-based. Particulars: CAL-27. A general note: Flow cytometry measures light scatter and fluorescence of single cells or particles in a stream.

Assay [14] addresses T2, Protein deacetylase HDAC6 (Homo sapiens) (UniProt Q9UBN7).
T2 sequence (whole entry): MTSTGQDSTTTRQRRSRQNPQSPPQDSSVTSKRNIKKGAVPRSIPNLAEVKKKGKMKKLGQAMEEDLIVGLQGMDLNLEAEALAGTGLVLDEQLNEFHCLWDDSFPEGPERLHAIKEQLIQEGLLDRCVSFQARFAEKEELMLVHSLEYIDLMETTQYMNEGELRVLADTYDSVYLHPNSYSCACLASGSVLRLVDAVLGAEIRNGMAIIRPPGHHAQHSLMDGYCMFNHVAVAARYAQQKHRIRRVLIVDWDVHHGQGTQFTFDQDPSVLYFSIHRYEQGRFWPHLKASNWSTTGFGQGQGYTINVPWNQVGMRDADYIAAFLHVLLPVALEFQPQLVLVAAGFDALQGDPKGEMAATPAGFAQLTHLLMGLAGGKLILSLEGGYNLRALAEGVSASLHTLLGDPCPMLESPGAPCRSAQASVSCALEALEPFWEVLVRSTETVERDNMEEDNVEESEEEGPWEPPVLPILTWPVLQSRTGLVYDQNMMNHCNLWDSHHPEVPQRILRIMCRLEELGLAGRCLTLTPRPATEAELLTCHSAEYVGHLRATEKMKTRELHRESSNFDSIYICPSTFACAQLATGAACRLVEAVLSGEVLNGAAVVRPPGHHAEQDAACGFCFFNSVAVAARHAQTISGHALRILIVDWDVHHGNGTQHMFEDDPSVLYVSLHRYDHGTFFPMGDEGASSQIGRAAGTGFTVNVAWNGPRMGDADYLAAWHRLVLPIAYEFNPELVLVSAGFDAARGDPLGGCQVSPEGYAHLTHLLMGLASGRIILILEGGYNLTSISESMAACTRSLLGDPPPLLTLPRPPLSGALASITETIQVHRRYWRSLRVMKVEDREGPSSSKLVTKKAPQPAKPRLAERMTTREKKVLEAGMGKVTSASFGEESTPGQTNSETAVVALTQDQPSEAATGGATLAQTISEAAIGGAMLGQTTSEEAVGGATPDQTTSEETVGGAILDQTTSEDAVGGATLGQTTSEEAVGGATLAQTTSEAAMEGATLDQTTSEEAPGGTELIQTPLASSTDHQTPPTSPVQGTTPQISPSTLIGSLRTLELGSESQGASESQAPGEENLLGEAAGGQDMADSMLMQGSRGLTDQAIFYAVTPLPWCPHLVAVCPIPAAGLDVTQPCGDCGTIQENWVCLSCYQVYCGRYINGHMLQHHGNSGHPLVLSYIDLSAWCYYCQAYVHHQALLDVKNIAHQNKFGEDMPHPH
Description: Inhibition of HDAC6 in human CAL27 cells assessed as acetylation of alpha-tubulin at 5 uM measured after 24 hrs by immunoblot analysis. It is filed as cell-based.

Assay [15] concerns the target T2, Protein deacetylase HDAC6 (Homo sapiens). Briefly: Inhibition of HDAC6 in human Cal27CisR cells assessed as acetylation of alpha-tubulin at 5 uM measured after 24 hrs by immunoblot analysis. The format is cell-based. On the technique in general: A western blot detects proteins with antibodies after separation by electrophoresis.
The target of assay [16] is T1, Class 1 histone deacetylase. Briefly: Inhibition of class 1 HDAC in human Cal27CisR cells assessed as potentiation of cisplatin-induced apoptosis assessed as increase in caspase-3/7 activation at 5 uM preincubated for 48 hrs followed by cisplatin addition and measured after 24 hrs in presence of pan caspase inhibitor QVD by CellEvent caspase 3/7 green detection reagent/Hoechst 33342 staining based imaging analysis. It is filed as cell-based.

Assay [17] shares this target. Briefly: Inhibition of class 1 HDAC in human Cal27CisR cells assessed as potentiation of cisplatin-induced apoptosis by measuring increase in accumulation at sub-G1 phase at […] preincubated for 48 hrs followed by cisplatin addition and measured after 24 hrs by propidium iodide staining based flow cytometry. The format is cell-based.
The target in assay [18] is T2, Protein deacetylase HDAC6 (Homo sapiens). Description: Inhibition of HDAC6 in human Cal27CisR cells assessed as acetylation of alpha-tubulin at […] measured after 24 hrs by immunoblot analysis. The format is cell-based.
The target of assay [19] is T1, Class 1 histone deacetylase. Briefly: Inhibition of class 1 HDAC in human CAL27 cells assessed as potentiation of cisplatin-induced cytotoxicity by measuring cisplatin IC50 at […] preincubated for 48 hrs followed by cisplatin addition and measured after 72 hrs by MTT assay (reference value: 9.79 uM). Conditions: cal-27. It is filed as cell-based.

Usually IC50 stands for the midpoint of a concentration-inhibition curve.

Active and inactive are the calls of the source. No cut-off for these calls is given here.

Turning to `CN(C)c1ccc(C(=O)N(CC(=O)NCc2ccccc2)Cc2ccc(C(=O)Nc3ccccc3N)cc2)cc1`, in the assay with CAL-27 [1], the “Ratio IC50” value is recorded as 1.7. Also, in the assay on CAL-27 [2], the Activity was 12%. The compound further had an IC50 in assay [3] of 8.42 µM. Moreover, the CI is 0.56 in assay [4]; 0.33 in [5]; 0.37 in [6]; less than 0.2 in assay [7]; 0.07 in [8]; 0.04 in assay [9].

On to `Cc1cc(C)cc(C(=O)N(CCCCCC(=O)Nc2cc(-c3ccccc3)ccc2N)CC(=O)NCc2ccccc2)c1`, for which the IC50 in [10] was 15.7 µM. Moreover, the CI in assay [11] and in [12] was 0.1 throughout. The inhibition entry in [13] is “Active”. The inhibition entry in assay [14], in assay [15] and in [16] was “inactive” in each case.

For `Cc1cc(C)cc(C(=O)N(CC(=O)NCc2ccccc2)Cc2ccc(C(=O)Nc3cc(-c4ccccc4)ccc3N)cc2)c1`, the inhibition entry in assay [17] is “Active”. In [18], the inhibition entry is “inactive”. Moreover, the IC50 in assay [19] came out at 1.86 µM.
